Data taken from US20140135293A1, “ALLENE DERIVATIVES AS SPHINGOSINE 1-PHOSPHATE (S1P) RECEPTOR MODULATORS” (ALLERGAN, INC., priority 2012, published 2014).
pEC50: −log10 of the molar value.

Target: T1, human S1P1 receptor (Homo sapiens, UniProt P21453)
T1 construct: expressed in transfected cells; membranes used
Assay: GTP y35S binding assay for S1P1 activity
Assay type: biochemical
Settings: membranes of cells stably expressing the S1P1 receptor, agonist potency
Description: Compounds were synthesized and tested for S1P1 activity using the GTP y^35S binding assay. These compounds may be assessed for their ability to activate or block activation of the human S1P1 receptor in cells stably expressing the S1P1 receptor.
GTP y^35S binding was measured in the medium containing (mM) HEPES 25, pH 7.4, MgCl2 10, NaCl 100, dithitothreitol 0.5, digitonin 0.003%, 0.2 nM GTP y^35S, and 5 μg membrane protein in a volume of 150 μl. Test compounds were included in the concentration range from 0.08 to 5,000 nM unless indicated otherwise. Membranes were incubated with 100 μM […] for 30 min, and subsequently with 10 μM GDP for 10 min on ice. Drug solutions and membrane were mixed, and then reactions were initiated by adding GTP y^35S and continued for 30 min at 25° C. Reaction mixtures were filtered over Whatman GF/B filters under vacuum, and washed three times with 3 mL of ice-cold buffer (HEPES 25, pH7.4, MgCl2 10 and NaCl 100). Filters were dried and mixed with scintillant, and counted for ^35S activity using a ([…]. Agonist-induced GTP y^35S binding was obtained by subtracting that in the absence of agonist. Binding data were analyzed using a non-linear regression method. In case of antagonist assay, the reaction mixture contained 10 nM […] in the presence of test antagonist at concentrations ranging from 0.08 to 5000 nM.

T1 sequence (P21453 whole entry): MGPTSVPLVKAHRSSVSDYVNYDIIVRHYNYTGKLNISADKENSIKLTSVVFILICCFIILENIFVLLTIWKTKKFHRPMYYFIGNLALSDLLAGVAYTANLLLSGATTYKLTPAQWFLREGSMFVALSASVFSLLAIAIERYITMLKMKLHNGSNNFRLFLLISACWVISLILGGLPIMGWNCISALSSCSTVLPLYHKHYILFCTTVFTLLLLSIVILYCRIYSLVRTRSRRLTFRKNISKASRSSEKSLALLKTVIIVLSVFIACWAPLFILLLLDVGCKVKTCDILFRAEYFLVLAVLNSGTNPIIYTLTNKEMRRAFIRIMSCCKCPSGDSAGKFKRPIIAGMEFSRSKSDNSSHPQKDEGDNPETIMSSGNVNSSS

pEC50 | Structure (SMILES)
7.23 | Cc1ccc(CC(=C=Cc2ccc(CNCCCP(=O)(O)O)cc2-c2cccs2)c2cc(F)cc(F)c2)cc1C [Compound 1, [3-({4-[3-(3,5-difluorophenyl)-4-(3,4-dimethylphenyl)buta-1,2-dien-1-yl]-3-(2-thienyl)benzyl}amino)propyl]phosphonic acid]
7.23 | Cc1ccc(CC(=C=Cc2ccc(CNCCCP(=O)(O)O)cc2-c2ccco2)c2cc(F)cc(F)c2)cc1C [Compound 2, [3-({4-[3-(3,5-Difluorophenyl)-4-(3,4-dimethylphenyl)buta-1,2-dien-1-yl]-3-(2-furyl)benzyl}amino)propyl]phosphonic acid]
5.78 | CCc1cc(C=C=C(Cc2ccc(C)c(C)c2)c2cc(F)cc(F)c2)ccc1CNCCCP(=O)(O)O [Compound 3, [3-({4-[3-(3,5-Difluorophenyl)-4-(3,4-dimethylphenyl)buta-1,2-dien-1-yl]-2-ethylbenzyl}amino)propyl]phosphonic acid]
